In patent US20140031296A1, “NEW SYNTHETIC PEPTIDES AND THEIR USE” (PERGAMUM AB, priority 2011, published 2014):

Legend:
[1] = tested on: TNF-α production in LPS stimulated THP-1 cells; assay: Inhibition of TNF-α production in LPS stimulated THP-1 cells (ELISA); assay type: cell-based, human; details: mean relative secretion, basal = 0%; for TNF-α at 40 μM peptide: LPS-stimulated level without peptide = 100%; for TNF-α at 4 μM peptide / TNF-α at 10 μM peptide: stimulated = 100%
Description: (§1) After 6 hours of incubation at +37° C., 5% CO2 and in a humid atmosphere, the cell supernatants were collected, centrifuged and kept frozen in −20° C. until analyzed for TNF-α content by ELISA (R&D Systems, Minneapolis, Minn., USA). The results are presented as mean relative secretion (%), with stimulated TNF-α level without peptide added set to 100% and basal secretion set to 0% (Table 2).
as §1, with “incubation,” for “incubation at +37° C., 5% CO2 and in a humid atmosphere,”, “centrifuged,” for “centrifuged”, “5).” for “2).”

S. aureus (CCUG 1800) = assay: Minimal microbicidal concentration (MMC99) assay, S. aureus; assay type: cell-based; details: 2 hours; for MMC99 μM in 50% SWF: 50% heat inactivated simulated wound fluid
Description: Antimicrobial Activity was Measured as Bactericidal Effect on S. aureus Using Minimal Microbicidal Concentration, MMC99, Assay)
S. aureus (#1800; CCUG, Gothenburg, Sweden) cultured on blood-agar plates [Columbia agar (Oxoid, Basingstoke, UK) supplemented with 5% defibrinated horse blood (National Veterinary Institute (SVA), Uppsala, Sweden)] were transferred to brain heart infusion broth (3.7% BHI; Difco, BD Diagnostics, Franklin Lakes, N.J., USA) and incubated in a shaker at 250 rpm+37° C. over night. The culture was thereafter be diluted 1:10 in fresh BHI broth and incubated for additional two hours to reach log-phase growth. The bacteria were pelleted and suspended in 1% BHI medium (BHI broth diluted 100 times in ultra-pure water) to a concentration of 10^7 bacteria/ml as estimated by measuring optical density at 600 nm. Peptides were serially diluted by two-fold steps from 160 μM to 1.25 μM in 1% BHI medium. The peptides (100 μl) were thereafter incubated with bacteria (5 μl á 10^7 bact./ml) for 2 hours at +37° C. Drops (5 μl) of the suspension were placed on blood agar plates. The blood agar plates were incubated over night at +37° C. The MMC99 values, i.e. the lowest peptide concentration needed to achieve a 99% reduction of viable bacteria, were recorded (Table 3). The concentration of the bacterial suspension used in the assay was confirmed by viable counts on blood agar plates.
S. aureus (#1800; CCUG, Gothenburg, Sweden) cultured on blood-agar plates [Columbia agar (Oxoid, Basingstoke, UK) supplemented with 5% defibrinated horse blood (National Veterinary Institute (SVA), Uppsala, Sweden)] were transferred to brain heart infusion broth (3.7% BHI; Difco, BD Diagnostics, Franklin Lakes, N.J., USA) and incubated in a shaker at 250 rpm+37° C. over night. The culture was thereafter be diluted 1:10 in fresh BHI broth and incubated for additional two hours to reach log-phase growth. The bacteria were pelleted and suspended in 1% BHI medium (BHI broth diluted 100 times in ultra-pure water) to a final concentration of 10^7 bacteria/ml as estimated by measuring optical density at 600 nm.
Peptides were serially diluted by two-fold steps from 400 μM to 0.78 μM in either 1% BHI medium or in 50% heat inactivated simulated wound fluid [SWF, containing 1 part 0.1% peptone (Oxoid, Basingstoke, UK) in saline and 1 part fetal bovine serum, diluted 2 times in ultra-pure water].
The peptides (100 μl) were thereafter incubated with bacteria (5 μl a 10^7 bact./ml) for 2 hours at +37° C. Drops (5 μl) of the suspension were placed on blood agar plates. The blood agar plates were incubated over night at +37° C. The MMC99 values, i.e. the lowest peptide concentration needed to achieve a 99% reduction of viable bacteria were recorded (Table 6). The concentration of the bacterial suspension used in the assay was confirmed by viable counts on blood agar plates.
The antimicrobial effects of the peptides 232 (SEQ ID NO: 78), and 220 (SEQ ID NO:67) were analysed by MMC99 (minimal microbicidal concentration) assay against S. aureus (CCUG 1800), MRSA (CCUG 41879), P. aeruginosa (ATCC 15442), E. coli (CCUG 31246), S. pyogenes (CCUG 4207), P. acnes (CCUG 1794T), S. epidermidis (ATCC12228), K. pneumoniae (ATCC 13883), A. baumannii (ATCC 19606), and C. albicans (ATCC 64549). The peptides were purchased from Biopeptide Company (San Diego, Calif., USA) and Bachem AG (Bubendorf, Switzerland) and results are presented in Table 8A and 8B respectively.
Peptides were serially diluted in two different assay medium, 1% BHI medium (brain-heart infusion medium) or 50% heat inactivated simulated wound fluid (SWF), and thereafter incubated with the microorganisms for 2 hours. Drops of the suspension were placed on blood agar plates. The MMC99 values, i.e. the lowest peptide concentration needed to achieve a 99% reduction of viable microorganisms, were recorded. As presented in Table 8, all the peptides have the ability to kill microorganisms frequently appearing in infections. […]

[2] = screen 1, 99% reduction of viable bacteria

Sequence	TNF-α at 40 μM peptide ([1]; screen 2) [%]	TNF-α at 40 μM peptide ([1]; screen 1) [%]	MMC99 μM in 1% BHI medium (S. aureus (CCUG 1800); [2]) [µM]	also measured
CRLWRRRMRKVW [Peptide 233]	90.7	–	–	–
QSRATKRFQWLRNHRKVL [Peptide 208]	130.2	–	–	–
RWCKLWRRLMRKVRRL [Peptide 239]	–	–	–	TNF-α at 4 μM peptide ([1]; screen 2): 65.6%; TNF-α at 10 μM peptide ([1]; screen 2): 56.5%; MMC99 μM in 1% BHI medium (S. aureus (CCUG 1800); screen 2): 12.5 µM; MMC99 μM in 50% SWF (S. aureus (CCUG 1800); screen 2): 25 µM
PEATKCFQWQRNMRKVR [Peptide 108]	–	127	>160	–
CFQWQRNMRKVR [Peptide 149]	–	109	13.3	–
CRLWRRNMRKVR [Peptide 229]	108.5	–	–	–
FQWQRPIRKVR [Peptide 137]	–	137	>160	–
QSEAEKCFQWQRNMRKVR [Peptide 107]	–	108	>160	–
CFLWRRNMRKVR [Peptide 227]	111.0	–	–	–
FQWKRAMRKVR [Peptide 122]	–	–	20	–
QSRATKRFQWHRNARKVL [Peptide 207]	160.9	–	–	–
QSERKKRFQWLRNLRKVL [Peptide 206]	51.0	–	–	TNF-α at 4 μM peptide ([1]; screen 2): 96.9%; TNF-α at 10 μM peptide ([1]; screen 2): 92.9%; MMC99 μM in 1% BHI medium (S. aureus (CCUG 1800); screen 2): 12.5 µM; MMC99 μM in 50% SWF (S. aureus (CCUG 1800); screen 2): 100 µM
QPEATKCFQWQRNMRKVR [Peptide 104]	–	132	>160	–
QPEATKCFPWQRNMRKVR [Peptide 118]	–	113	>160	–
FQWQRNIRKIR [Peptide 134]	–	109	40	–
LVKRLNRLWQFRKTAESQ [Peptide 216]	121.9	–	–	–
QSLATKLFQWLRNLRKVR [Peptide 114]	–	15	2.5	–
FQWQRNIRKVR [Peptide 136]	–	96	>160	–
FWWQRKMRKVR [Peptide 131]	–	87	5	–
QSAKTACFLWRRNMRKVR [Peptide 226]	108.7	–	–	–

Sequence	TNF-α at 40 μM peptide ([1]; screen 2) [%]	TNF-α at 40 μM peptide ([1]; screen 1) [%]	MMC99 μM in 1% BHI medium (S. aureus (CCUG 1800); [2]) [µM]	also measured
CFKWKRKMRKVR [Peptide 147]	–	111	10	–
CFLWRRLMRKV [Peptide 237]	89.2	–	–	–
QSLAHSLFQWLRNLRKVR [Peptide 218]	9.2	–	–	TNF-α at 4 μM peptide ([1]; screen 2): 81.8%; TNF-α at 10 μM peptide ([1]; screen 2): 55.7%; MMC99 μM in 1% BHI medium (S. aureus (CCUG 1800); screen 2): 6.25 µM; MMC99 μM in 50% SWF (S. aureus (CCUG 1800); screen 2): 50 µM
QSEATKRFQWLRNLRKVLKR [Peptide 211]	62.8	–	–	TNF-α at 4 μM peptide ([1]; screen 2): 100.7%; TNF-α at 10 μM peptide ([1]; screen 2): 89.8%; MMC99 μM in 1% BHI medium (S. aureus (CCUG 1800); screen 2): 6.25 µM; MMC99 μM in 50% SWF (S. aureus (CCUG 1800); screen 2): 100 µM
WCKLWRRLMRKVRR [Peptide 241]	–	–	–	TNF-α at 4 μM peptide ([1]; screen 2): 92.7%; TNF-α at 10 μM peptide ([1]; screen 2): 57.9%; MMC99 μM in 1% BHI medium (S. aureus (CCUG 1800); screen 2): 12.5 µM; MMC99 μM in 50% SWF (S. aureus (CCUG 1800); screen 2): 25 µM
FQWQRNLRKLR [Peptide 135]	–	103	20	–
FQWRPGIRKLR [Peptide 139]	–	148	45	–
QSLAEKLFQWLRNRRKVR [Peptide 120]	–	49	10	–
WRRWLRKSVKRL [Peptide 247]	88.2	–	–	–
QSLATKLFQWRRNLRKVR [Peptide 121]	–	35	10	–
NQPTATKCFQWQRNMRKVR [Peptide 102]	–	108	>160	–
GRRRRSVQWCA [Peptide 223]	104.4	–	–	MMC99 μM in 1% BHI medium (S. aureus (CCUG 1800); screen 2): 25 µM
CFQWKRAMRKVR [Peptide 144]	–	140	10	–
QSEATKCFQWLRNMRKVR [Peptide 113]	–	22	>160	–
LRTWRRLTRKVW [Peptide 234]	102.0	–	–	–
QSLAEKLFQWLRNLRKVR [Peptide 117]	–	13	2.5	–
FQWQPRIRKVR [Peptide 138]	–	172	>160	–
QSEATKRFQWLRNLRKVL [Peptide 217]	103.0	–	–	–
QSEYTKRYQWLRNLRKVL [Peptide 204]	96.9	–	–	–
FQWQRNMRKVR [Peptide 133]	–	135	>160	–

Sequence	TNF-α at 40 μM peptide ([1]; screen 2) [%]	TNF-α at 40 μM peptide ([1]; screen 1) [%]	MMC99 μM in 1% BHI medium (S. aureus (CCUG 1800); [2]) [µM]	also measured
LRLWRRLMRKVW [Peptide 231]	49.8	–	–	TNF-α at 4 μM peptide ([1]; screen 2): 102.6%; TNF-α at 10 μM peptide ([1]; screen 2): 89.1%; MMC99 μM in 1% BHI medium (S. aureus (CCUG 1800); screen 2): 12.5 µM; MMC99 μM in 50% SWF (S. aureus (CCUG 1800); screen 2): 50 µM
WFQWKRRMRKVR [Peptide 129]	–	91	10	–
QREARKRFQWLRNMTKVR [Peptide 201]	128.6	–	–	–
CFQWQKRMKRVK [Peptide 148]	–	132	20	–
VSQSEATKRFQWLRNLRKVL [Peptide 214]	88.8	–	–	–
QSLAEKLFWQLRNLRKVR [Peptide 221]	94.4	–	–	–
SEAEKCFQWQRNMRKVR [Peptide 110]	–	102	>160	–
QSEATKCFLWRRNMRKVR [Peptide 225]	111.6	–	–	–
GRRRRSVQWCA [Peptide 255]	100.7	–	–	–
QREARKFRQWLRNMTKVR [Peptide 203]	98.1	–	–	–
QESARKQFRWLRNLTKVL [Peptide 202]	90.3	–	–	–
QSAARTFKQWARNLRKTL [Peptide 210]	101.0	–	–	–
EATKCFQWQRNMRKVR [Peptide 158]	–	91	–	–
TKCFLWRRNMRKVRG [Peptide 242]	116.8	–	–	–
LVWIKRHIKKFK [Peptide 246]	125.5	–	–	–
WFKCFQWQRNMRKVR [Peptide 243]	113.1	–	–	–
CFLWRRSMRRLR [Peptide 236]	94.4	–	–	–
LRLWRRSMRKVW [Peptide 235]	89.3	–	–	–
VWIVKKQVKRIK [Peptide 245]	146.3	–	–	–
